Positions count from the first letter of the chain named.
Tests used:
FLT3(D835V) = biological target: T1, FLT3(D835V) (Homo sapiens, UniProt P36888, D835V); assay: scanMAX kinase panel; type: binding; details: read-out: % Control; for remaining binding at 1 µM: 1000 nM
T1 construct: purchased DiscoverX scanMAX
T1 sequence (P36888 27-993 D835V): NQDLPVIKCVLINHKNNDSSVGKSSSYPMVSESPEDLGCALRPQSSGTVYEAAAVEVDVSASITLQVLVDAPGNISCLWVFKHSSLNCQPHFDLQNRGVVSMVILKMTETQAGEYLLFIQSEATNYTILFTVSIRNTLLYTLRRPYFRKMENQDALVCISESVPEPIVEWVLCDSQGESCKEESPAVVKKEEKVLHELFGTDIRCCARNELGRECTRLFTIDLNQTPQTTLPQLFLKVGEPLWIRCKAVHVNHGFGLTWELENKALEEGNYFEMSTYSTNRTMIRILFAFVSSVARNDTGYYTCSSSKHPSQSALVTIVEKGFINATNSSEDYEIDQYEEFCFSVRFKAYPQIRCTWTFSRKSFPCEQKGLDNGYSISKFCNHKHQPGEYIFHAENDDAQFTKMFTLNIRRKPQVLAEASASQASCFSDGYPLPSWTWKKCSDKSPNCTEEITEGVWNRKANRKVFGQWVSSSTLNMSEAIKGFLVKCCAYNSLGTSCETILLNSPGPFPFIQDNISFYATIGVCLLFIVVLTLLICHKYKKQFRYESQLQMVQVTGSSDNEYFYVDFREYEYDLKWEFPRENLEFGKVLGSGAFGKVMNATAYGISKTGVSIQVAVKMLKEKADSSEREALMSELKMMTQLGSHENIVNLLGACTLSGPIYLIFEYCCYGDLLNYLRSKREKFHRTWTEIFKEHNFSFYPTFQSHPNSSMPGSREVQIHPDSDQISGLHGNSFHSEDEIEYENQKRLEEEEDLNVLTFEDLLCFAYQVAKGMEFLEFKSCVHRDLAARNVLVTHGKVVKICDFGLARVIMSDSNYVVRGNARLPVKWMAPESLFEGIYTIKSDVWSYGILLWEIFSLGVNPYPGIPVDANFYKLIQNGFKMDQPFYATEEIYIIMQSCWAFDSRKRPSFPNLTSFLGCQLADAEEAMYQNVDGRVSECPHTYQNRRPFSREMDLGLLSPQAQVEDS
Description: (§1) Supplemental Table S2. scanMAXSM Kinome Assay Results. Complete tabulated data of all 468 kinases from the panel, including
(§2) 403 wild-type and 65 mutant isoforms. […] Cmpd 11 and Cmpd 24

FLT3 = biological target: T2, FLT3 (Homo sapiens, UniProt P36888); assay: scanMAX kinase panel; type: binding; set-up: purchased DiscoverX scanMAX; details: read-out: % Control; for remaining binding at 1 µM: 1000 nM
T2 sequence (P36888 27-993): T1 sequence (P36888 27-993 D835V) with V809D
Description: as §1, §2

786-O RCC xenografts = assay: 786-O ccRCC tumor xenograft study; type: in vivo; details: for tolerability by body weight measurement / tumor growth inhibition: 30 mg/kg BID oral, 29 days
Method: In vivo studies of the effect of pyrrolopyrimidines on 786-O xenograft inhibition follow a method published elsewhere. Female BALB/c nude mice were inoculated subcutaneously with 786-O tumor cells (5 × 10^6) in 0.1 mL of PBS. Animals were randomized when tumors reached 100–200 mm^3 into treatment groups. […] Tumor volumes were measured by caliper and the volume was expressed in mm^3 using the formula: V = (L × W × W)/2, where V, L, and W represent tumor volume, length, and width, respectively. All studies were conducted following an IACUC-approved protocol (AN-1903-05-1798). Experimental data management and reporting were in accordance with applicable Crown Bioscience’s Guidelines and Standard Operating Procedures.

GCN2 = biological target: T3, GCN2 (Homo sapiens, UniProt Q9P2K8); assay: ISR kinase cell-free biochemical assay (Carna), GCN2; details: ATP 150 µM
T3 construct: purchased Carna 05-153
Method: (§3) In brief, 26 was dissolved in DMSO and serially diluted 3-fold to generate concentrations ranging from 10 µM to 0.2 nM in a 384-well plate using a TECAN EVO200 automated liquid handler. 10 nL stock solution was transferred into each well of a 384well assay plate by an Echo550 and an equivalent volume of DMSO was added to the control wells. To each assay well, recombinant protein was suspended in 20 µL reaction buffer (listed below) and incubated at 25 °C for 1.5 h while shaking at 1250 rpm. Following incubation, 10 µL of a FRET dilution buffer including 20 mM EDTA and 4 nM Tb-anti-peIF2a [pSer51] (Invitrogen, Cat# PV4815) was added to each well and incubated at 25 °C for 2 h while shaking at 600 rpm in the dark. Analysis was performed using an Envision Microplate Reader (PerkinElmer).

PKR = biological target: T4, PKR (Homo sapiens, UniProt P19525); assay: ISR kinase cell-free biochemical assay (Carna), PKR; details: ATP 6 µM
T4 construct: purchased Carna 05-156
Method: as §3

PERK = biological target: T5, PERK (Homo sapiens, UniProt Q9NZJ5); assay: ISR kinase cell-free biochemical assay (Carna), PERK; details: ATP 8 µM
T5 construct: purchased Carna 05-155
Method: as §3

MOLM-13 (FLT3-ITD) = assay: Cell viability assay, MOLM-13; type: cell-based; details: Homo sapiens

T5 sequence (Q9NZJ5 563-1116 limits assumed): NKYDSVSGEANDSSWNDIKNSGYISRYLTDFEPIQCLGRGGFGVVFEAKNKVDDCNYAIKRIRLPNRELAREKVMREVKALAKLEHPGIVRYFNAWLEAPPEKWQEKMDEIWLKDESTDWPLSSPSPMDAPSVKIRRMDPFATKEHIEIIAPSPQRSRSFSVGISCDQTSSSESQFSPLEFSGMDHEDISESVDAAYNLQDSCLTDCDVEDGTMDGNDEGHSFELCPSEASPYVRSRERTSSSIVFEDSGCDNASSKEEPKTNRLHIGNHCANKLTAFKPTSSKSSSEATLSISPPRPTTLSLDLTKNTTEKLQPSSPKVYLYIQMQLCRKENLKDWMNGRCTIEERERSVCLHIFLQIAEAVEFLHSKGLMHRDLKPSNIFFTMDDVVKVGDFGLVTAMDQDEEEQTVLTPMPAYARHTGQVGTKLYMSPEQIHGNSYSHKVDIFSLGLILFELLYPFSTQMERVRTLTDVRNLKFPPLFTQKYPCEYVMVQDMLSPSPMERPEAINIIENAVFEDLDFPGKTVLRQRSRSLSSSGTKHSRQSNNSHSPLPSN
T3 sequence (Q9P2K8 whole entry): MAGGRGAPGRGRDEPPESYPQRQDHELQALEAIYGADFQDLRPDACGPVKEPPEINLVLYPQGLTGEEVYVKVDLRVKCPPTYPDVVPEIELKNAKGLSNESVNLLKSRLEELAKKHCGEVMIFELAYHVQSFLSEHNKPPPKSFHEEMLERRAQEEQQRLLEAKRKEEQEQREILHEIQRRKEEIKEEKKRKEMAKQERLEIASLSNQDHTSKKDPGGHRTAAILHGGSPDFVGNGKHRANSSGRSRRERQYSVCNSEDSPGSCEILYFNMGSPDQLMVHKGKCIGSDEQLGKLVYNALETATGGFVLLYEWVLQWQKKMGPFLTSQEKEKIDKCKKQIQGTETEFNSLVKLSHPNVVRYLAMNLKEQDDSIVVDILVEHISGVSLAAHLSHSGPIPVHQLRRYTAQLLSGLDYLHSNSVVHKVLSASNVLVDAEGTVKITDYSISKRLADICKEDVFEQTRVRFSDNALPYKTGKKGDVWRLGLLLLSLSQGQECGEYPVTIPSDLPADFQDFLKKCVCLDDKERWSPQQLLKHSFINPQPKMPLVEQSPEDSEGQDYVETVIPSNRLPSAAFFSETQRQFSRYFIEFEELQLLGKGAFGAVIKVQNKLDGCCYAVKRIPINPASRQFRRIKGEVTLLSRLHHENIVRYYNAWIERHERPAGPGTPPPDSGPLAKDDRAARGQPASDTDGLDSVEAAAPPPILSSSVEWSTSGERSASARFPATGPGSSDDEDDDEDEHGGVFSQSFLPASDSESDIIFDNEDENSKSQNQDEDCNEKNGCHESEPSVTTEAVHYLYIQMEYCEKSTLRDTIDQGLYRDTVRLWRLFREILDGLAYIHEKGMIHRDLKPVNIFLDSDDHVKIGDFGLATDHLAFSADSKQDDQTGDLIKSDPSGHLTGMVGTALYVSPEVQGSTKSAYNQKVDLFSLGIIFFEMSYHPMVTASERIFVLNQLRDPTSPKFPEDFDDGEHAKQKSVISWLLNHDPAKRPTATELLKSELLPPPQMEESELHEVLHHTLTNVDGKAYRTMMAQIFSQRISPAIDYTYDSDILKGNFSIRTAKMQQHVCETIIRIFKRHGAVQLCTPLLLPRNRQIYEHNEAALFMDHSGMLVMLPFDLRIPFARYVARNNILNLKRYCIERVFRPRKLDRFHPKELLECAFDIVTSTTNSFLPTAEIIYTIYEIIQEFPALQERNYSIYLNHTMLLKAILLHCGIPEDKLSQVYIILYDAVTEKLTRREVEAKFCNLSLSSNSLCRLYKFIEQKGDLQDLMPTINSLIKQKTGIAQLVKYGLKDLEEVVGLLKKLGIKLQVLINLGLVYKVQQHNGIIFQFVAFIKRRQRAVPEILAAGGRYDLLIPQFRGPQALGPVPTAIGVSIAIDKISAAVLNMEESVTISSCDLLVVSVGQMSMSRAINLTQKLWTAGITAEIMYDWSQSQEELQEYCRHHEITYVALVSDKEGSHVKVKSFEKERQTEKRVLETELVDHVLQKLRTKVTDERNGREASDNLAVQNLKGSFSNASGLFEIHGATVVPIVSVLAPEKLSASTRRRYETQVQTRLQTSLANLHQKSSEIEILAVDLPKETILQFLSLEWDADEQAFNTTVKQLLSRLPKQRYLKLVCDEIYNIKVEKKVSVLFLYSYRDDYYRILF
T4 sequence (P19525 whole entry): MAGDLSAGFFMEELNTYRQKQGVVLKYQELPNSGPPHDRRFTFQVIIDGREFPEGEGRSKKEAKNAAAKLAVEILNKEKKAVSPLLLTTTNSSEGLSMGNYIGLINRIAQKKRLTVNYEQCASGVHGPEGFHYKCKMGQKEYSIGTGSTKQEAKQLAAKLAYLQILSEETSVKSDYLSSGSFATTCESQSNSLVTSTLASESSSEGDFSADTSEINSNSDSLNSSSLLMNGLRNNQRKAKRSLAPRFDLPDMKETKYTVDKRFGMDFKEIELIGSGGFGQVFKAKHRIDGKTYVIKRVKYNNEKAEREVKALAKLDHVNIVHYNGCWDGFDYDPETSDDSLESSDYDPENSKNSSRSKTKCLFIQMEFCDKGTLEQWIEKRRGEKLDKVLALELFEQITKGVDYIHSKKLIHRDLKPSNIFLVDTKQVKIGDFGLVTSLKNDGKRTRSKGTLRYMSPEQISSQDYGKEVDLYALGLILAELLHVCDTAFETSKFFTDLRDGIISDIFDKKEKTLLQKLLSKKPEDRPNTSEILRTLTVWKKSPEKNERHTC

SMILES	remaining binding at 1 µM (FLT3(D835V)) [%]	remaining binding at 1 µM (FLT3) [%]	tolerability by body weight measurement (786-O RCC xenografts)	tumor growth inhibition (786-O RCC xenografts)	remaining binding at 0.1 µM (FLT3(D835V); 100 nM) [%]	IC50 (GCN2) [µM]	IC50 (PKR) [µM]	IC50 (PERK) [µM]	IC50 (MOLM-13 (FLT3-ITD)) [µM]	remaining binding at 0.1 µM (FLT3; 100 nM) [%]	effect on body weight (786-O RCC xenografts; 10 or 30 mg/kg, 28-day study period)	tumor volume (786-O RCC xenografts; 10 or 30 mg/kg, 28 days)
Cc1nc(N)c2c(-c3ccc(NC(=O)[C@H](O)c4cccc(F)c4)cc3C)cn(C)c2n1 [Compound 24]	100	66	well tolerated	significant tumor growth inhibition	–	–	–	–	–	–	–	–
Cc1nc(N)c2c(-c3ccc(NC(=O)[C@H](O)c4cccc(F)c4)c(F)c3F)cn(C)c2n1 [Compound 70, (R)-N-(4-(4-amino-2,7-dimethyl-7H-pyrrolo[2,3-d]pyrimidin-5-yl)-2,3-difluorophenyl)-2-(3-fluorophenyl)-2-hydroxyacetamide]	–	–	well tolerated	significant tumor growth inhibition	–	–	–	–	–	–	–	–
Cc1cc(NC(=O)[C@H](O)c2cccc(F)c2)ccc1-c1cn(C)c2ncnc(N)c12 [Compound 11, (R)-N-(4-(4-amino-7-methyl-7H-pyrrolo[2,3-d]pyrimidin-5-yl)-3-methylphenyl)-2-(3-fluorophenyl)-2-hydroxy acetamide]	52	4.3	–	–	–	–	–	–	–	–	–	–
Cc1nc(N)c2c(-c3ccc(NC(=O)[C@H](O)c4cccc(C(F)(F)F)c4)cc3C)cn(C)c2n1 [Compound 26]	8.5	0	well tolerated	significant tumor growth inhibition	100	> 10	> 10	0.0047	0.311	41	No significant effects on body weght	significantly decreased tumor volume

Source: paper PMC9611727, “Optimization of a Novel Mandelamide-Derived Pyrrolopyrimidine Series of PERK Inhibitors” (Pharmaceutics, 2022)
